Assay results taken from PMC8306904, “Discovery of New Hits as Antitrypanosomal Agents by In Silico and In Vitro Assays Using Neolignan-Inspired Natural Products from Nectandra leucantha” (Molecules, 2021).
Read-outs that look alike come from different tables or passages of the source.

Tests used:
[1] = test system: amastigote forms of T. cruzi; assay: Activity against amastigote forms of T. cruzi in infected macrophages; type: cell-based, Trypanosoma cruzi; conditions: for SI: selectivity index (ratio CC50/IC50): CC50 against NCTC cells/IC50 against amastigotes
Method: To perform the experiments, peritoneal macrophages from BALB/c mice were infected with trypomastigotes forms of T. cruzi. The macrophages obtained from the peritoneal cavity of BALB/c mice were seeded on a 16-well chamber slide (NUNC plate, Merck; 1 × 10^5/well) and incubated for 24 h at 37 °C in a 5% CO2-humidified incubator. The trypomastigotes LLC-MK2 were counted and used to infect the macrophages (parasite:macrophage ratio = 10:1). After 2 h incubation at 37 °C in a 5% CO2-humidified incubator, free parasites were removed by 1× washing with the medium. […] Benznidazole was used as the standard drug. At the end of the assay, slides were fixed with MeOH, stained with Giemsa, and counted using light microscopy. The IC50 values were calculated as previously reported.

[2] = test system: amastigote forms of T. cruzi; set-up: method as in PMID 28864277, PMID 31103897, PMID 33047947; conditions: read-out: IC50, 50% inhibitory concentration against amastigote forms of T. cruzi; intracellular amastigotes; compounds 9–33 and 36–50; ref [8],[10],[26]; cited from earlier work
NCTC cells-clone L929 = test system: NCTC cells-clone L929; set-up: method as in PMID 28864277, PMID 31103897, PMID 33047947; conditions: read-out: CC50, 50% cytotoxic concentration in NCTC cells (ATCC, clone 929); compounds 9–33 and 36–50; ref [8],[10],[26]; cited from earlier work
[3] = Cytotoxicity against mammalian cells (MTT); type: cell-based; conditions: mouse, NCTC clone L929 cells (murine conjunctive cells)
Method: The optical density was determined using FilterMax F5 (Molecular Devices) at 570 nm. We calculated the selectivity index (SI) values using the following equation: CC50 against NCTC cells/IC50 against amastigotes.

[4] = Trypanosoma cruzi, Macrophage, -log IC50 against amastigotes, Table 1 and Figure 7, read-out: pIC50 Experimental (converted)
[5] = Trypanosoma cruzi, Macrophage, Table S2, -log IC50, supplement numbering, read-out: pIC50 (converted)
[6] = Trypanosoma cruzi, Peritoneal macrophage, in Mus musculus, 48 h, read-out: IC50, 50% inhibitory concentration against amastigote forms of T. cruzi, intracellular amastigotes in BALB/c peritoneal macrophages, 48 h, 30 to […]

SMILES | SI: selectivity index (ratio CC50/IC50) [1] | IC50 [1, 4] | IC50 [1, 5] | IC50 [2] | CC50 (NCTC cells-clone L929) | IC50 [1, 6] | CC50 at 48 h [3] | pIC50 Experimental ([1]; -log IC50 against amastigotes, Table 1 and Figure 7) | IC50 ([1]; Trypanosoma cruzi, Macrophage, Table S1, test set, supplement numbering, read-out: Exp. pIC50 (converted)) | IC50 ([1]; read-out: IC50, 50% inhibitory concentration against amastigote forms of T. cruzi, intracellular amastigotes in BALB/c peritoneal macrophages, 48 h, 30 to […])
C=CCc1ccc(Oc2cc(CC=C)cc(OC)c2OCc2ccc(OC)cc2)cc1 [Compound 46] | >18.2 | 11.5 µM | 11 µM | 11 ± 2.3 µM | > 200 µM | – | – | – | – | –
C=CCc1ccc(Oc2cc(CC=C)cc(OC)c2OCCCCC)c(OC)c1 [Compound 8] | – | > 30 µM | – | – | – | > 30 µM | > 200 µM | – | – | –
CCCc1cc(OC)cc(Oc2ccc(CCC)cc2OC)c1 [Compound 35] | >18.3 | 11 µM | – | – | – | 10.9 ± 6.5 µM | > 200 µM | – | – | –
C=CCc1ccc(Oc2cc(C(=O)C=C)cc(OC)c2O)c(OC)c1 [Compound 5, 4-hydroxy-5-methoxy-3-[3′-methoxy-1′-(8′-propenyl)phenoxy]-1-(7-oxo-8-propenyl)benzene] | – | > 30 µM | 10 µM | – | – | > 30 µM | > 200 µM | – | – | –
O=C(Cn1ccnc1[N+](=O)[O-])NCc1ccccc1 [Bzd, benznidazole, reference compound] | 34.5 | 5.5 µM | – | – | – | 5.5 ± 1.4 µM | 190 ± 13.5 µM | – | – | –
C=CCc1ccc(Oc2cc(CCC)cc(OC)c2O)c(OC)c1 [Compound 37] | 1.4 | 10.5 µM | – | 10.5 ± 8.3 µM | 14.2 ± 0.1 µM | – | – | – | – | –
C=CCc1ccc(Oc2cc(CC=C)cc(OC)c2O)cc1 [Compound 45] | 5.5 | 22.4 µM | – | 22.5 ± 18.8 µM | 123 ± 9.8 µM | – | – | – | – | –
C=CCc1ccc(Oc2cc([C@@H](O)C=C)cc(OC)c2OC)c(OC)c1 [Compound 4, 1-[(7S)-hydroxy-8-propenyl]-3-[3′-methoxy-1′-(8′-propenyl)-phenoxy]-4,5-dimethoxybenzene] | >14.0 | 14.5 µM | 7.94 µM | – | – | 14.3 ± 1.9 µM | > 200 µM | – | – | –
C=CCc1ccc(Oc2cc(C(=O)C=C)cc(OC)c2OC)c(OC)c1 [Compound 6, 4,5-dimethoxy-3-[3′-methoxy-1′-(8′-propenyl)phenoxy]-1-(7-oxo-8-propenyl)benzene] | >7.6 | 26.3 µM | 30.2 µM | – | – | 26.3 ± 1.3 µM | > 200 µM | – | – | –
CCCc1ccc(Oc2cc(CCC)cc(OC)c2OC)c(OC)c1 [Compound 22] | – | > 30 µM | – | > 30 µM | > 200 µM | – | – | – | – | –
C=CCc1cc(OC)c(OC)c(Oc2ccc(CCC)cc2OC)c1 [Compound 38] | >17.1 | 11.7 µM | – | 11.7 ± 7 µM | > 200 µM | – | – | – | – | –
CCCOc1c(OC)cc(CCC)cc1Oc1ccc(CCC)cc1OC [Compound 18] | – | > 30 µM | 87.1 µM | > 30 µM | > 200 µM | – | – | – | – | –
C=CCc1cc(OC)c(OCc2ccc(OC)cc2)c(Oc2ccc(CCC)cc2OC)c1 [Compound 40] | >23.3 | 8.51 µM | – | 8.6 ± 2.1 µM | > 200 µM | – | – | – | – | –
C=CCc1cc(OC)c(OCc2ccc(OC)cc2)c(Oc2ccccc2OC)c1 [Compound 48] | – | > 30 µM | – | > 30 µM | > 200 µM | – | – | – | – | –
C=CCc1cc(OC)c(OC)c(Oc2ccccc2OC)c1 [Compound 47] | – | > 30 µM | – | > 30 µM | > 200 µM | – | – | – | – | –
C=CCc1ccc(Oc2cc(C(=O)C=C)cc(OC)c2OC(C)=O)c(OC)c1 [Compound 7, 4-Acetoxy-5-methoxy-3-[3′-methoxy-1′-(8′-propenyl)phenoxy]-1-(7-oxo-8-propenyl)benzene] | >47.6 | 4.27 µM | – | – | – | 4.3 µM | > 200 µM | 5.38 | 9.55 µM | 4.2 ± 1.1 µM
COc1cc(CC(C)O)ccc1Oc1cc(CC(C)O)cc(OC)c1OC (stereo not drawn) [Compound 31] | >15.0 | 13.2 µM | 28.2 µM | 13.3 ± 3.6 µM | > 200 µM | – | – | – | – | –
C=CCc1ccc(Oc2cc(CCC)cc(OC)c2OCc2ccc(OC)cc2)c(OC)c1 [Compound 41] | >14.9 | 13.5 µM | – | 13.4 ± 5.4 µM | > 200 µM | – | – | – | – | –
C=CCOc1c(OC)cccc1Oc1ccc(CC=C)cc1OC [Compound 49] | – | > 30 µM | – | > 30 µM | > 200 µM | – | – | – | – | –
C=CCc1ccc(Oc2cc([C@@H](O)C=C)cc(OC)c2O)c(OC)c1 [Compound 3, 1-[(7S)-hydroxy-8-propenyl]-3-[3′-methoxy-1′-(8′-propenyl)-phenoxy]-4-hydroxy-5-methoxybenzene] | – | > 30 µM | – | – | – | > 30 µM | > 200 µM | – | – | –
COc1cc(CC2CO2)ccc1Oc1cc(CC2CO2)cc(OC)c1OC (stereo not drawn) [Compound 25] | – | > 30 µM | – | > 30 µM | > 200 µM | – | – | – | – | –
C=CCc1cc(OC)cc(Oc2ccc(CC=C)cc2OC)c1 [Compound 34] | >34.5 | 5.75 µM | – | – | – | 5.8 ± 0.7 µM | > 200 µM | – | – | –
C=CCc1cc(OC)cc(Oc2cc(CC=C)cc(OC)c2OS(=O)(=O)C(F)(F)F)c1 [Compound 33] | – | > 30 µM | 4.27 µM | > 30 µM | > 200 µM | – | – | – | – | –
C=CCc1ccc(Oc2cccc(OC)c2OC)c(OC)c1 [Compound 42] | >7.8 | 25.7 µM | – | 25.7 ± 12.2 µM | > 200 µM | – | – | – | – | –
